{"source": "patent US20210246439A1", "about": "“ENGINEERED BI-STABLE TOGGLE SWITCH AND USES THEREOF” (Massachusetts Institute of Technology, priority 2020, published 2021)", "molecules": {"B1": {"name": "DDe-DDe-Csy4: fusion protein of two DDe domains and Csy4, nucleotide sequence SEQ ID NO: 5 (protein)", "chain": "MSLALSLTADQMVSALLDAEPPILYSEYDPTRPFSEASMMGLLTNLADRELVHMINWAKRVPGFVDLALHDQVHLLECAWMEILMIGLVWRSMEHPGKLLFAPNLLLDRNQGKCVEGGVEIFDMLLATSSRFRMMNLQGEEFVCLKSIILLNSGVYTFLSSTLKSLEEKDHIHRVLDKITDTLIHLMAKAGLTLQQQHQRLAQLLLILSHIRHMSSKRMEHLYSMKCKNVVPLSDLLLEMLDAHRLMSLALSLTADQMVSALLDAEPPILYSEYDPTRPFSEASMMGLLTNLADRELVHMINWAKRVPGFVDLALHDQVHLLECAWMEILMIGLVWRSMEHPGKLLFAPNLLLDRNQGKCVEGGVEIFDMLLATSSRFRMMNLQGEEFVCLKSIILLNSGVYTFLSSTLKSLEEKDHIHRVLDKITDTLIHLMAKAGLTLQQQHQRLAQLLLILSHIRHMSSKRMEHLYSMKCKNVVPLSDLLLEMLDAHRLMDHYLDIRLRPDPEFPPAQLMSVLFGKLHQALVAQGGDRIGVSFPDLDESRSRLGERLRIHASADDLRALLARPWLEGLRDHLQFGEPAVVPHPTPYRQVSRVQAKSNPERLRRRLMRRHDLSEEEARKRIPDTVARALDLPFVTLRSQSTGQHFRLFIRHGPLQVTAEEGGFTCYGLSKGGFVPWF"}, "B2": {"name": "DDd-CasE: fusion protein of DDd domain and CasE, nucleotide sequence SEQ ID NO: 6 (protein)", "chain": "MYLSKIIIARAWSRDLYQLHQELWHLFPNRPDAARDFLFHVEKRNTPEGCHVLLQSAQMPVSTAVATVIKTKQVEFQLQVGVPLYFRLRANPIKTILDNQKRLDSKGNIKRCRVPLIKEAEQIAWLQRKLGNAARVEDVHPISERPQYFSGEGKNGKIQTVCFEGVLTINDAPALIDLLQQGIGPAKSMGCGLLSLAPLMISLIAALAVDYVIGMENAMPWNLPADLAWFKRNTLNKPVIMGRHTWESIGRPLPGRKNIILSSQPSTDDRVTWVKSVDEAIAACGDVPEIMVIGGGRVIEQFLPKAQKLYLTHIDAEVEGDTHFPDYEPDDWESVFSEFHDADAQNSHSYCFEILERR"}}, "key": {"[1]": {"system": "engineered bi-stable toggle switch (CasE-PEST, Csy4-PEST, DDd-CasE, DDe-DDe-Csy4) in HEK293 cells", "experiment": "Toggle switch with DDd-CasE and DDe-DDe-Csy4 in transfected HEK293 cells, small-molecule control, flow cytometry of mKO2/eYFP", "format": "cell-based, human", "description": "Output fluorescent protein genes may also contain PERSIST activation domains to decrease expression in the OFF state. […] Further, HEK293 cells were transfected with CasE-PEST, Csy4-PEST, DDd-CasE and DDe-DDe-Csy4 transiently and cultured in the absence of small molecule for 24 hours."}, "[2]": {"system": "CasE target hairpin containing a theophylline responsive aptamer", "experiment": "Proof of concept: CasE target hairpin with theophylline responsive aptamer 5' of eYFP, co-delivered with CasE", "format": "cell-based, human", "settings": "HEK293 cells, versus absence of theophylline", "description": "Alternatively, the engineered bi-stable toggle switch described in Example 1 can be designed to be able to respond to different small molecules to switch the system between different states. In this system, each of the endoRNAse target sites can include a small molecule-response aptamers. Binding of the small molecule to the aptamer stabilizes a secondary structure in the aptamer RNA that blocks the endoRNAse from cleaving its recognition hairpin. As illustrated by FIG. 4A, the CRISPR-endoRNAse recognition hairpin contains an aptamer sequence capable of binding to a small molecule. In the absence of the small molecule, the endoRNAse is able to cleave the recognition hairpin; however, the addition of the small molecule to the system induces a conformational change of the endoRNAse target hairpin, and such conformational change renders the endoRNAse incapable of binding and cleaving its target hairpin. […] In this experiment, a CasE target hairpin containing a theophylline responsive aptamer was placed 5′ of an eYFP coding sequence in an eYFP-expressing construct. This eYFP-expressing construct was co-delivered to HEK293 cells with another construct expressing CasE."}, "[3]": {"system": "engineered bi-stable motif", "experiment": "Screening of promoter and degradation domain combinations with Csy4 on the bi-stable motif (polytransfection, eYFP/TagBFP)", "format": "cell-based", "description": "Csy4 was first selected to be fused with either one copy or two copies of DDd domain or DDe domain respectively: DDe-Csy4, DDe-DDe-Csy4, DDd-Csy4, and DDd-DDd-Csy4. Various promoters (e.g., phEF1α, pUbc, and pPh1f) were used to drive the expression of the Csy4 or Csy4-degradation domain fusion proteins. pPh1f promoters were tested in the presence of Gal4-NLS-VP64. As a result, the following constructs were generated: phEF1α-Csy4, pUbc-DDd-Csy4, pUbc-DDd-DDd-Csy4, pPh1f-DDd-DDd-Csy4, pPh1f-DDd-Csy4-PEST, pPh1f-DDe-Csy4, pUbc-DDe-Csy4, pUbc-DDe-Csy4-PEST, pPh1f-DDe-DDe-Csy4, pUbc-DDe-DDe-Csy4, and pUbc-DDe-DDe-Csy4-PEST. Each of the constructs and the engineered bi-stable toggle switch described in Example 1 were delivered to the cells by polytransfection (Gam et al, A ‘poly-transfection’ method for rapid, one-pot characterization and optimization of genetic systems, Nucleic Acids Research, Volume 47, Issue 18, 10 Oct. 2019, Page e106). The output molecules were eYFP and TagBFP. The system was designed such that Csy4 represses eYFP and CasE represses TagBFP. A cell in the CasE-high state expressed eYFP and a cell in the Csy4-high state expresses TagBFP. The ratio between CasE to Csy4 was set at 6.7 times as much CasE as Csy4, biasing the system towards a CasE-high state in the absence of additional proteins. […]"}, "[4]": {"system": "engineered bi-stable motif", "experiment": "Screening of DDd-CasE fusion proteins on the bi-stable motif (polytransfection, eYFP/TagBFP)", "format": "cell-based", "settings": "hEF1α promoter, among CasE-DDd fusions screened", "description": "Further, fusion proteins between CasE and one or more DDd domains were screened similarly as described above. In this experiment, only hEF1α promoter was tested. Each of the construct and the engineered bi-stable toggle switch described in Example 1 were delivered to the cells by polytransfection. The output molecules were eYFP and TagBFP. The system was designed such that Csy4 represses eYFP and CasE represses TagBFP. A cell in the CasE-high state expressed eYFP and a cell in the Csy4-high state expresses TagBFP. The ratio between CasE to Csy4 was set at 1.6 times as much Csy4 as CasE, biasing the system towards a Csy4-high state in the absence of additional proteins."}}, "data": [{"molecule": "4-hydroxytamoxifen [4-OHT]", "values": [{"measurement": "state the bi-stable toggle switch stabilizes on", "setting": "[1]; small molecule in the system for 24 hours", "value": "Csy4-high/CasE-low state (mKO2-high/eYFP-low)"}]}, {"molecule": "COc1cc(Cc2cnc(N)nc2N)cc(OC)c1OC", "note": "[TMP, trimethoprim]", "values": [{"measurement": "reporter expression after small molecule addition", "setting": "[1]; 10 μM added at 24 hrs and maintained for 48 hrs, roughly equal mKO2 and eYFP before addition", "value": "higher frequencies of eYFP expression than mKO2 expression"}]}, {"molecule": "Cn1c(=O)c2[nH]cnc2n(C)c1=O", "note": "[theophylline]", "values": [{"measurement": "eYFP expression in the presence of theophylline (repression by CasE lifted)", "setting": "[2]", "value": "two-folds increase"}]}, {"molecule": "B1", "values": [{"measurement": "capability of (i) being degraded in the absence of 4-OHT and (ii) cleaving RNA efficiently in the presence of 4-OHT", "setting": "[3]; among Csy4 fusion constructs screened", "value": "best capability"}, {"measurement": "fraction of cells in the TagBFP high state with versus without 4-OHT", "setting": "[3]; regardless of promoter, especially in higher ratio bins", "value": "higher fraction of cells in the TagBFP high state when 4-OHT is present than without"}]}, {"molecule": "B2", "values": [{"measurement": "being degraded in the absence of TMP and cleaving RNA in the presence of TMP", "setting": "[4]", "value": "better at (i) being degraded in the absence of TMP; and (ii) cleaving RNA efficiently in the presence of TMP"}]}]}
